Counter-ions that a name gives are not always drawn. Activity calls are given as the source filed them.
How the values were obtained:
[1] = target: Eukaryotic translation initiation factor 4E (Mus musculus, UniProt P63073); assay: blockers of eIF4G binding by eIF4E – biochemical, TR-FRET, dose response (AID 855); type: functional;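 note: potency for disrupting eIF4E binding to eIF4GI seen as loss of FRET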
[2] = rise of 4N DNA cells, HeLa – IC50, dose response (AID 1117351); type: functional, cell-based
[3] = cells; type: functional, cell-based; conditions: INS-1E
[4] = IC50 of insulin release inhibition, rat insulinoma INS-1E line, 5 mM glucose, cell-based (AID 1117331); type: functional
[5] = rise of 2N DNA cells, HeLa – IC50, dose response (AID 1117349); type: functional, cell-based
[6] = HEK-293T cell viability reduction – luminescence, B-cell screen hits, cytotoxicity control for BCR NF-kB inhibitor project, dose response (AID 489021); type: functional, cell-based;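 note: HEK-293T cells carrying an NF-kB luciferase reporter; cells exposed to compound for about 14 hours before viability readout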
[7] = test system: H9c2; assay: cells; type: functional, cell-based; conditions: Rattus norvegicus, H9c2, Myocardium;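 note: confirmatory concentration-response retest of ultra-high-throughput screening hits for modulation of myocardial damage; cell death induced by hydrogen peroxide oxidative stress; compound pretreatment for 60 min then peroxide exposure for 2 h; potency is for protecting the cells against peroxide damage rather than for killing them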
[8] = luciferase reporter signal suppression in cells – H4 neuroglioma cells, luminescence, dose response (AID 1990); type: functional, cell-based
[9] = alpha-synuclein stem-loop luciferase translation blockers – H4 neuroglioma cells, luminescence, confirmation (AID 1988); type: functional, cell-based
[10] = Luminescence Cell-Based Dose Response HTS to Identify Inhibitors of 5'UTR Stem-Loop Driven Prion Protein mRNA Translation in H4 Neuroglioblastoma Cells. [Related pubchem assays: 1827 (Project Summary), 1813 (Primary HTS)]; type: functional
[11] = target: T1, Bcl-2-like protein 10 (Homo sapiens, UniProt Q9HD36); assay: Bcl-B/TR3 peptide binding disruption – biochemical, fluorescence polarization, FITC-TR3 peptide, selectivity assay for Bfl-1 inhibitor project, primary screen (AID 748);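 note: fluorescence polarization from a fluorescein-labelled TR3 peptide binding purified Bcl-B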
T1 sequence (Q9HD36 whole entry): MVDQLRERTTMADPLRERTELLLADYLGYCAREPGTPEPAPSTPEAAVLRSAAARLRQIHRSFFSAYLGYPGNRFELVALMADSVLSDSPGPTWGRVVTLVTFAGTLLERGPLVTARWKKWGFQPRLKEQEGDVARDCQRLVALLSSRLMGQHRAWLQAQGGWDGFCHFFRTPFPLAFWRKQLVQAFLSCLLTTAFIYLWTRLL

[12] = Trypanosoma cruzi growth suppression in host cells – NIH3T3 host cells, beta-gal luminescence, confirmation (AID 2044); type: functional, cell-based;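 note: intracellular parasites grown in NIH/3T3 mouse fibroblasts as host cells; luminescent beta-galactosidase reporter signal from transgenic T. cruzi replicating inside host cells; inhibitors lower the luminescence signal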
[13] = test system: INS1; assay: INS-1E survival protection against cytokine death – cell-based, luminescence, retest, dose response (AID 449756); type: functional; conditions: Rattus norvegicus;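 note: cell death triggered by IL-1 beta plus TNF-alpha plus IFN-gamma mixture; protective hits raise ATP signal compared with cytokine alone wells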
[14] = NIH3T3 cell viability loss – ATP luminescence, mouse fibroblasts, counter-screen, dose response (AID 2010); type: functional, cell-based;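 note: cells exposed to compound for about 90 hours before reading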
[15] = cells; type: functional
[16] = THP-1 cell cytotoxicity, dose response, cytotoxicity control for non-replicating M. tuberculosis project (AID 489025); type: functional
[17] = M. tuberculosis H37Rv growth inhibitors, H37Rv strain (AID 1626); type: functional
[18] = target: T2, Mannose-6-phosphate isomerase (Homo sapiens, UniProt P34949); assay: MPI inhibition at elevated mannose 6-phosphate – biochemical, fluorescence intensity, high mannose 6-phosphate, primary screen (AID 1220)
T2 sequence (P34949 whole entry): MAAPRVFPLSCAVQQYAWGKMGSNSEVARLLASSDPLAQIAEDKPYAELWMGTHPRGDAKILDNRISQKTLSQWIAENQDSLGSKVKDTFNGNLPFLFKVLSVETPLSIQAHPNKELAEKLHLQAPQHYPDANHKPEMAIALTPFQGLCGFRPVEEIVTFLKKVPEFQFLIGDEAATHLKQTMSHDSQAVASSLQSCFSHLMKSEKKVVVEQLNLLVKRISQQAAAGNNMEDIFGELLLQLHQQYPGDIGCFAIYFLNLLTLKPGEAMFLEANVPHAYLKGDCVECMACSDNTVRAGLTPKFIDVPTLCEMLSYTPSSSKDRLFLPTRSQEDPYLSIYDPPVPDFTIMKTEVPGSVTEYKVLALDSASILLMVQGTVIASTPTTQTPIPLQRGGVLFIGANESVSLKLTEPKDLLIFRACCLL

[19] = target: T3, Aminopeptidase N (Plasmodium falciparum FcB1/Columbia, UniProt O96935); assay: malaria alanyl aminopeptidase activity blockers – biochemical, fluorogenic H-Leu-NHMec substrate, 1536-well (AID 1445); parameters: species or system Plasmodium falciparum 3D7, 3D7
T3 sequence (O96935 whole entry): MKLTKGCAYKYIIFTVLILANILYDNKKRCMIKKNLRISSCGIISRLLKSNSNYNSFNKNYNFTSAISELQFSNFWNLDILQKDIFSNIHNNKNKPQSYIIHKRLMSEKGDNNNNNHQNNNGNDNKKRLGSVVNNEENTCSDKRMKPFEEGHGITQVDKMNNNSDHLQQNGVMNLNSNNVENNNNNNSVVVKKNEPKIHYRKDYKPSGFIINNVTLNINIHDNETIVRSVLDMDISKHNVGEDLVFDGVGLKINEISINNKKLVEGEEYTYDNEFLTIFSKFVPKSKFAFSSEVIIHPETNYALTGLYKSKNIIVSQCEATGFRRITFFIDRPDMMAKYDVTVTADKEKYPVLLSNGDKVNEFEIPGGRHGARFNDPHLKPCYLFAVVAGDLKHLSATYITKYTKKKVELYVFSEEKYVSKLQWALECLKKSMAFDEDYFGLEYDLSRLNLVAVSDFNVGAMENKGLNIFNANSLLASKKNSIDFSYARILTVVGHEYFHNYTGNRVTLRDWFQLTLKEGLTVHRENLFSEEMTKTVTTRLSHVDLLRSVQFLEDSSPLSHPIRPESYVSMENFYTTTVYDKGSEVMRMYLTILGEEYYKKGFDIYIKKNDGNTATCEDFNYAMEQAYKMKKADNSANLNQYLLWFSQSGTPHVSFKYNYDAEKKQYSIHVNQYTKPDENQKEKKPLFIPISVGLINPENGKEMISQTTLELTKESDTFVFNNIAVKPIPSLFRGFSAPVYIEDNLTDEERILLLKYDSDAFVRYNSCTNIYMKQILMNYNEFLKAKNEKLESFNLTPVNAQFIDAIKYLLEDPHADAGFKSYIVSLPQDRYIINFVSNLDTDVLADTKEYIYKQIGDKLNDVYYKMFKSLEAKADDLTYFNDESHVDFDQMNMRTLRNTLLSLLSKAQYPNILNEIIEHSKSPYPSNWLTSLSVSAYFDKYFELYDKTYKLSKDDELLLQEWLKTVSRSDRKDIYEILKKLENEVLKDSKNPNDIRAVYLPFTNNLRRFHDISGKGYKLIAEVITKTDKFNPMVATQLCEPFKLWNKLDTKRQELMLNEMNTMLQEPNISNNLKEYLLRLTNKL

[20] = target: T4, Bifunctional protein GlmU (Mycobacterium tuberculosis, UniProt P9WMN3); assay: Inhibitors of Mycobacterial Glucosamine-1-phosphate acetyl transferase (GlmU). Secondary screen.; parameters: species or system Mycobacterium tuberculosis H37Rv
T4 sequence (P9WMN3 whole entry): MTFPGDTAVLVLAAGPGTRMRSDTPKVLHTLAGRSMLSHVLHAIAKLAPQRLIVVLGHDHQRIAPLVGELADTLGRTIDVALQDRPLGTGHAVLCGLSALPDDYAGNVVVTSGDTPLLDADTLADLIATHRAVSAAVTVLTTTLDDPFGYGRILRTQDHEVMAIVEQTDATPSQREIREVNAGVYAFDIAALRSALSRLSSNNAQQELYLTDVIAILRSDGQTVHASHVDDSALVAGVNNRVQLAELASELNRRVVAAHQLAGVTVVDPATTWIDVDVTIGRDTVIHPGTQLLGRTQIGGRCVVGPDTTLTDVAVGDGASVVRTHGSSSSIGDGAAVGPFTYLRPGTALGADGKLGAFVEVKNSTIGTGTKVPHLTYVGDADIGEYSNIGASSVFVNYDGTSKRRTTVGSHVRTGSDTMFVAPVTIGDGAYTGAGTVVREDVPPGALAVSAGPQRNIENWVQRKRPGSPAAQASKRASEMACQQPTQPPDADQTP

[21] = target: T5, Protein Tat (Human immunodeficiency virus type 1 group M subtype B (isolate HXB2)(HIV-1), UniProt P04608); type: functional;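 note: tat binding to TAR RNA read out by fluorescence polarization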
T5 sequence (P04608 whole entry): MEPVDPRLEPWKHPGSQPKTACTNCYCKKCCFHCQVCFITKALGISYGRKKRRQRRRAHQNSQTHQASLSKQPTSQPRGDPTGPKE

[22] = viability inhibitors of stage V gametocytes – luminescence, dose response (AID 1117278); type: functional, cell-based;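 note: gametocytes exposed to compound for 24 hours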
[23] = viability loss in human Jurkat cells – cell-based, luminescence, cytotoxicity control for P. falciparum gametocyte viability project, dose response (AID 1117277); type: functional;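 note: potency reflects loss of cellular ATP meaning fewer viable cells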
[24] = viability of uninfected HEp-2 cells – cell-based, HTS, cytotoxicity control for RSV inhibitor project, dose response (AID 2410); type: functional; conditions: human respiratory syncytial virus
[25] = HPDE-C7 pancreatic duct cell viability loss – fluorescence, HTS (AID 430); type: functional, cell-based; conditions: Homo sapiens
[26] = viability loss of HPDE-C7K cells – cell-based, fluorescence, HTS, primary screen (AID 431); type: functional; conditions: Homo sapiens
[27] = target: T6, Cytochrome P450 1A2 (Homo sapiens, UniProt P05177);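 note: PubChem cytochrome P450 panel assay, CYP1A2 panel member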
T6 sequence (P05177 whole entry): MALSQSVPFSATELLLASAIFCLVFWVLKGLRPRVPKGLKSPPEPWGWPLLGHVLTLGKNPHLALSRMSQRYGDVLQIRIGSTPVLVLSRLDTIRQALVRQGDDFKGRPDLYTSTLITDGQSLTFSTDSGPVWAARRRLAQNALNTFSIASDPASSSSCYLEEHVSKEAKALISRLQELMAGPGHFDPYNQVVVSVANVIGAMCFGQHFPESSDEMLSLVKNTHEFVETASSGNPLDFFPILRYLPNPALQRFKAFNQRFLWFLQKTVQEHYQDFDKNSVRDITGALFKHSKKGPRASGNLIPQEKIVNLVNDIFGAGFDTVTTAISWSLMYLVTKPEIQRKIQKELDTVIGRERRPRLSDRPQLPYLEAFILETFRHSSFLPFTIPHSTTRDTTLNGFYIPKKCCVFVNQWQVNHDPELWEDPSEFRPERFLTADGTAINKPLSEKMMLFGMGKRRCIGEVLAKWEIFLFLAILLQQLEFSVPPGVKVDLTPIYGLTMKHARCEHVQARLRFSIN

Sequence of Eukaryotic translation initiation factor 4E (P63073 whole entry): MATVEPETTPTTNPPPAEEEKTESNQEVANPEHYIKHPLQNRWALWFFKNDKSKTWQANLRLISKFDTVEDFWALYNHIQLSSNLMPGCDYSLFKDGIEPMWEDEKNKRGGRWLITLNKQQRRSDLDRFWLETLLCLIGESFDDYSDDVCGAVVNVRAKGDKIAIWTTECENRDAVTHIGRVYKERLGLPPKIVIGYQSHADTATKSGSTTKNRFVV

Nc1nnc(SCc2ccccc2Cl)s1
IC50 [1]: > 64 µM (inactive)

CN(C)CCC=C1c2ccccc2CCc2ccccc21 [AMITRIPTYLINE HYDROCHLORIDE]
IC50 [2]: > 10 µM (inactive) | IC50 [3]: > 33.3 µM (inactive) | IC50 [4]: 3 µM (active) | IC50 [5]: > 10 µM (inactive)

CC(C)N1C(=O)S/C(=C/c2ccc3c(c2)n(C)c(=O)n3C)C1=O
IC50 [6]: > 80 µM (inactive) | IC50 [7]: 32.2 µM (inactive)

CCOC(=O)c1cc2c(=O)n3ccccc3nc2n(CC(C)C)/c1=N/C(=O)c1c(-c2c(F)cccc2Cl)noc1C
IC50 [6]: > 80 µM (inactive) | EC50 [8]: 14.1 µM (active) | EC50 [9]: 42.8 µM (active) | EC50 [10]: 15.8 µM (active)

COC(=O)c1[nH]c2cccc(OC)c2c1NC(=O)CCN1CCC(C(N)=O)CC1
IC50 [11]: > 100 µM (inactive)

N=c1c2c(n(Cc3cccc(Cl)c3)c3c1CCC3)CCCC2
IC50 [6]: > 80 µM (inactive) | EC50 [12]: 0.167 µM (active) | AC50 [13]: 6.82 µM (active) | EC50 [14]: > 60 µM (inconclusive)

COc1ccc(NC(=O)c2ccc(COCC(F)(F)C(F)F)cc2)cc1
IC50 [15]: 47.8 µM (active) | CC50 [16]: > 40 µM (active) | IC50 [17]: > 100 µM (active)

CCC1Cc2c(nc(N)c3c(N)nc(N4CCCCC4)c(C#N)c23)O1 (stereo not drawn)
IC50 [18]: > 50 µM (not active)

O=C1NC(=S)S/C1=C\c1coc2ccc(O)cc2c1=O
IC50 [19]: 38.8 µM (active) | IC50 [20]: 112 µM (active)

CCC(=O)Nc1cc(C)c(NC(=O)C23CC4CC(CC(C4)C2)C3)cn1
IC50 [21]: > 100 µM (active)

CCOC(=O)CNC(=O)c1cc(OC)cc(OC)c1
IC50 [22]: > 109 µM (inactive) | IC50 [23]: > 83.3 µM (inactive)

CC1(C)CC(NC(=O)c2sc3cc(Cl)ccc3c2Cl)CC(C)(C)N1
IC50 [17]: > 100 µM (active)

COc1cc2c(C#N)c(N3CCc4ccccc4C3)nc(N)c2c(N)n1
CC50 [24]: 15.2 µM (active) | EC50 [25]: 7.82 µM (active) | IC50 [18]: > 50 µM (not active) | EC50 [26]: 8.37 µM (active)

CCCc1cc(O)nc(SCC(=O)N2CCN(S(=O)(=O)c3ccc4ccccc4c3)CC2)n1
IC50 [22]: > 109 µM (inactive) | IC50 [23]: > 83.3 µM (inactive)

COc1ccc(-c2nc(C[S+]([O-])CC(=O)NCCCN3CC(C)CC(C)C3)c(C)o2)cc1OC (stereo not drawn)
IC50 [22]: > 109 µM (inactive) | IC50 [23]: > 83.3 µM (inactive)

CN(C)CCN(Cc1ccc(Cl)cc1)c1ccccn1 [CHLOROPYRAMINE]
IC50 [3]: 16.8 µM (inactive) | AC50 [27]: 12.6 µM (inconclusive) | IC50 [4]: 6.14 µM (inactive)

C/C(=C\C(=O)c1cccnc1)Nc1ccc(C(=O)O)cc1
IC50 [18]: > 50 µM (not active)

— ChEMBL document CHEMBL1201862, “PubChem BioAssay data set” (2004)
